Measured values published in patent US6436445B1, “Antimicrobial and antiviral compositions containing an oxidizing species” (Ecolab Inc., priority 1999, dated 2002).
Read-outs that look alike come from different tables or passages of the source. Marks after values point to notes of the source that are not given here.

Columns and labels:
[1] = system: Total bacterial flora on prerigor beef tissue surfaces; assay: Microbial reduction on prerigor beef tissue surfaces, 30 second treatment; assay type: cell-based
[2] = system: E. coli ATCC 11229; assay: Log reduction of bacteria by liquid compositions, 30 second contact (E. coli); assay type: cell-based; details: for Log Reduction E. coli / Log Reduction: 30 second contact time; for Log Reduction E. coli: vs. untreated control; for Log Reduction: E. coli
Text: (§1) A variety of nitrogen sources are utilized. Results recorded include the color of the solution and the microbial log reduction of gram-positive and gram-negative bacteria (E. coli and S. aureus, respectively). As shown earlier there is a direct correlation between color of the solution and microbial efficacy. […] Looking at Table 6, there is an obvious direct correlation between color and antimicrobial activity. Table 7 compares formulas of the present invention with prior art examples for the reduction of gram-positive and gram-negative bacteria. […] Results recorded include the pH of the solution, the color of the solution and the log reduction in microbe.

[3] = system: S. aureus; assay: Log reduction of bacteria by liquid compositions, 30 second contact (S. aureus); assay type: cell-based; details: for Log Reduction S. aureus: vs. untreated control
Text: as §1

[4] = system: Z. bailii
[5] = system: Feline parvovirus; details: cited from earlier work
[6] = system: Penicillium expansum (ATCC 7861); assay: Mold spore suspension test, exposure, neutralization, plating on Sabouraud Dextrose agar; assay type: cell-based; details: P. expansum, 15 minute contact time
[7] = published results against Feline parvovirus
[8] = Actives Conc. 300 ppm, 30 second exposure

## CCCCCCCCCCCCCCCC[n+]1ccccc1 [cetyl pyridinium chloride]
[1]
  Log Reduction: 0.5 log

## C[N+](C)(C)CCO.[Cl-] [choline chloride]
[2]
  Log Reduction E. coli: 0 log
[2]; N-source:H2O2:KI 300:0:0 ppm, pH 7
  Log Reduction: 0.0 log
[3]; 30 second contact time
  Log Reduction S. aureus: 0 log
[4]; N-source:H2O2:KI 300:0:0 ppm, pH 7, 30 second contact time
  Log Reduction: 0.0 log

## CCO [Ethanol]
[5]; [7]
  Minimum Concentration (for 10-minute inactivation): 500,000 ppm

## [I-].[K+] [KI, potassium iodide]
[6]; N-source:H2O2:KI 0:0:500 ppm, pH 5
  Log Reduction: 0.0* log
[2]
  Log Reduction E. coli: 0 log
[3]; 30 second contact time
  Log Reduction S. aureus: 0 log

## Oc1ccccc1-c1ccccc1 [o-phenylphenol G, o-phenylphenol]
[5]; [7]
  Minimum Concentration (for 10-minute inactivation): 100,000 ppm

## cocoa dimethyl betaine
[2]
  Log Reduction E. coli: 0 log
[3]; 30 second contact time
  Log Reduction S. aureus: 0 log

## [Na+].[O-]Cl [NaOCl]
[5]; [7]
  Minimum Concentration (for 10-minute inactivation): 2,000 ppm

## OO [Formula H2O2, hydrogen peroxide]
[6]; N-source:H2O2:KI 0:532:0 ppm, pH 5
  Log Reduction: 0.0* log
[2]
  Log Reduction E. coli: 0.2 log
[2]; [8]
  Log Reduction (CFU/ml) E. coli: 0.2 log CFU/ml
[2]; N-source:H2O2:KI 0:300:0 ppm, pH 5
  Log Reduction: 0.2 log
[3]; 30 second contact time
  Log Reduction S. aureus: 0 log
[3]; [8]
  Log Reduction (CFU/ml) S. aureus: 0.4 log CFU/ml
[3]; S. aureus, N-source:H2O2:KI 0:300:0 ppm, pH 5, 30 second contact time
  Log Reduction: 0.4 log
[4]; N-source:H2O2:KI 0:532:0 ppm, pH 3, 30 second contact time
  Log Reduction: 0.1 log
[4]; N-source:H2O2:KI 0:532:0 ppm, pH 5, 30 second contact time
  Log Reduction: 0.1 log
[4]; N-source:H2O2:KI 0:532:0 ppm, pH 7, 30 second contact time
  Log Reduction: 0.1 log

## cocodimethyl betaine
[2]
  Log Reduction E. coli: 0 log
[3]; 30 second contact time
  Log Reduction S. aureus: 0 log

## CCCCCCCC[N+](C)(C)[O-] [C8 amine oxide, Octyl dimethyl aznine oxide]
[2]
  Log Reduction E. coli: 0 log
[3]; 30 second contact time
  Log Reduction S. aureus: 0 log

## CC(C)O [IPA]
[5]; [7]
  Minimum Concentration (for 10-minute inactivation): 500,000 ppm

## CCCCCCCCCC[N+](C)(C)CCCCCCCCCC.[Cl-] [didecyl dimethyl ammonium chloride]
[6]; N-source:H2O2:KI 100:0:0 ppm, pH 7
  Log Reduction: 1.0* log
[4]; N-source:H2O2:KI 20:0:0 ppm, pH 3, 30 second contact time
  Log Reduction: 0.1 log

## CC(O)C(=O)O (centres unmarked) [lactic acid]
[1]; Active Antimicrobial 5000 ppm, treated 30 seconds, drained 10 minutes, relative to untreated starting meat carcass
  Log Reduction: 0.8 log

## O=CCCCC=O [Glutaraldehyde]
[5]; published, (2-log)
  Minimum Concentration (for 10-minute inactivation): 10,000
